Our source for the TGI and GI50 values is PubChem BioAssay (NCI).

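These data come from cells grown in 96-well plates and exposed to compound for 48 hours at five concentrations. At the GI50, growth is halved. At the TGI there is no net growth.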 A value given as a limit tells only on which side of the number the result lay.

What all share (assay): NCI anticancer screen, dose series, 48 h
The subject of experiment [1] is K-562 leukemia.
The subject of experiment [2] is EKVX NSCLC.
In experiment [3] the test system is NCI-H522 lung.
Experiment [4] relates to LOX IMVI melanoma.
Experiment [5] relates to ACHN renal.
Experiment [6] has as its system SF-268 CNS.
For experiment [7], the system named is SK-MEL-2 melanoma.
Experiment [8] deals with MOLT-4 leukemia.
The subject of experiment [9] is SW-620 colon.
The subject of experiment [10] is A549 NSCLC.

On to `Cc1cc2c(=O)cc(-c3ccc(Cl)cc3Cl)oc2c(C(=O)O)c1C`, for which the TGI in [1], in [2], in experiment [3], in [4], in [5] and in experiment [6] was above 100 µM each time. Further, the TGI in experiment [7], in experiment [8], in experiment [9] and in [10] was above 100 µM throughout.

With `CCOc1ccc(N=C2NC(=O)C(CC(=O)Nc3ccc(Cl)cc3Cl)S2)cc1` (centres undefined), the TGI in experiment [1], in experiment [2], in experiment [4], in experiment [5], in experiment [6] and in experiment [7] was above 100 µM each time. The TGI in experiment [8], in experiment [9] and in [10] was above 100 µM throughout.

Consider `O=C1NC(=N[C@@H]2C[C@H]2c2ccccc2)S/C1=C\c1ccc2ncccc2c1`, for which the GI50 is 1.42 µM in experiment [1]; 0.776 µM in experiment [3]; 1.22 µM in [4]; 1.29 µM in [5]; 2.25 µM in experiment [6]; 4 µM in experiment [7]. Further, the GI50 in [8] was 4.29 µM; in experiment [9], 0.901 µM; in [10] it was 0.976 µM. Moreover, the TGI was above 25 µM in experiment [1]; 3.12 µM in experiment [3]; 12.1 µM in [4]; 8.69 µM in experiment [5]; 8.02 µM in experiment [6]; 9.55 µM in [7]. The TGI in [8] is 21.8 µM; in [9], above 19.4 µM; in experiment [10], 6.71 µM.

As to `C#CCOCCCC(=O)O`, the TGI in experiment [1], in experiment [2], in experiment [4], in experiment [5], in experiment [7] and in [8] was above 100 µM throughout. Also, the TGI in experiment [9] and in [10] was above 100 µM throughout.

With `O=C1/C(=C\c2ccc(Cl)cc2)CN(C(=O)c2ccccc2)C/C1=C\c1ccc(Cl)cc1`, the GI50 is 1.98 µM in experiment [1]; 3.22 µM in [3]; 0.771 µM in [4]; 2.73 µM in experiment [5]; 3.74 µM in experiment [6]; 16.8 µM in experiment [7]. For the same molecule, the GI50 in [8] is 4.25 µM; in [9], 1.75 µM; in experiment [10], 3.15 µM. Further, the TGI is above 100 µM in experiment [1]; 10.8 µM in experiment [3]; 2.26 µM in experiment [4]; 8.17 µM in [5]; 17.5 µM in [6]; 71.2 µM in experiment [7]. Besides, the TGI in experiment [8] is above 100 µM; in [9], 5.01 µM; in experiment [10] it was above 45.6 µM.

Turning to `CC(=O)N[C@@H](Cc1ccc(OP(=O)(O)O)cc1)C(=O)N[C@H]1CCC(=O)N2CCC[C@@H](C(=O)NCc3cccc4ccccc34)N2C1=O`, the GI50 in experiment [1], in experiment [3], in experiment [4], in experiment [5], in [6] and in experiment [7] was above 25 µM throughout. For the same molecule, the GI50 in experiment [8], in [9] and in experiment [10] was above 25 µM in each case. Besides, the TGI in experiment [1], in [3], in [4], in experiment [5], in experiment [6] and in [7] was above 25 µM in each case. The TGI in experiment [8], in [9] and in experiment [10] was above 25 µM in each case.

As for `CSc1nc(SC)c2c(C)cn(Cc3ccccc3)c2n1`, the TGI in [2], in [3], in experiment [4], in experiment [5], in experiment [6] and in experiment [7] was above 100 µM in each case. Further, the TGI in [8], in experiment [9] and in experiment [10] was above 100 µM throughout.

As for `O=C1C2=C(c3ccccc31)C(c1ccccc1Cl)NC(=S)N2` (centres undefined), the TGI in experiment [1], in [2], in experiment [3], in experiment [5], in [6] and in experiment [7] was above 100 µM throughout. Besides, the TGI in [8], in [9] and in experiment [10] was above 100 µM in each case.

`COc1ccc(C(=O)O[C@@H]2CCN3CC[C@H](C)[C@H]23)cc1`: the TGI in experiment [2], in experiment [3], in [4], in experiment [5], in [6] and in experiment [7] was above 100 µM each time. Besides, the TGI in experiment [8], in experiment [9] and in experiment [10] was above 100 µM each time.

As to `CN1C(=O)CNS1(=O)=O`, the TGI in experiment [1], in experiment [4], in experiment [5], in experiment [6], in experiment [7] and in experiment [8] was above 100 µM in each case. Moreover, the TGI in experiment [9] and in [10] was above 100 µM each time.

On to `CC12OC(C(=O)C13CC3)C1C(=O)c3cccc(O)c3C(=O)C12` (centres undefined), for which the GI50 in experiment [2] is 11.8 µM; in experiment [3] it was 8.84 µM; in experiment [4], 5.1 µM; in [5] it was 2.95 µM; in experiment [6] it was 6.08 µM; in [7], 47.3 µM. Also, the GI50 in experiment [8] is 1.83 µM; in experiment [9], 4.41 µM; in [10], 28.7 µM. Moreover, the TGI was 37.6 µM in [2]; above 76.9 µM in [3]; above 100 µM in experiment [4]; above 39.1 µM in experiment [5]; above 68.5 µM in [6]; above 100 µM in experiment [7]. The TGI in experiment [8], in experiment [9] and in experiment [10] was above 100 µM each time.
